According to US20140357512A1, “HISTONE DEACETYLASE (HDAC) BIOMARKERS IN MULTIPLE MYELOMA” (priority 2013, published 2014):

Test system: human myeloma cell line MM.1S
Test: SILAC acetylated-lysine peptide profiling, HDAC inhibitor vs DMSO (light/heavy ratio)
Type: cell-based
From the text: An embodiment of the invention comprises utilizing the SILAC method in order to quantitate changes in protein expression between two or more populations of cells. The SILAC method is a technique based on mass spectrometry that detects differences in protein abundance among samples using non-radioactive isotopic labeling. The SILAC method is known in the art, and described in detail in Ong et al., “Stable Isotope Labeling by Amino Acids in Cell Culture, SILAC, as a Simple and Accurate Approach to Expression Proteomics”, Molecular & Cellular Proteomics, vol. 1, pp. 376-386 (2002), which is incorporated herein by reference in its entirety.
Briefly, the SILAC method involves growing two populations of cells in cell culture. The first population of cells is grown in growth media containing normal amino acids (“normal media”). The second population of cells is grown in media lacking a standard essential amino acid (such as lysine), but is then supplemented with a non-radioactive, isotopically labeled form of that essential amino acid (such as lysine labeled with ^13C atoms, rather than normal ^12C atoms), which is called “heavy media”. When the two populations of cells are each growing in the medium, they incorporate the amino acids into all of their proteins. The growth of cells maintained in the heavy media is no different from that in normal media. All peptides containing the heavy amino acids are heavier than their normal counterparts. The cells from each of the two populations of cells are lysed. The lysates from each of the two cell populations are then combined. The combined cell lysates are then analyzed by mass spectrometry. Pairs of chemically identical peptides of different stable isotope composition can be differentiated in a mass spectrometer due to their difference in mass. The ratio of peak intensities in the mass spectrum for such peptide pairs reflects the abundance ratio for the two proteins.
This example describes SILAC studies that were performed to compare the effects of three different HDAC inhibitors (Compound A, Compound B, and tubastatin A) to a control on a human multiple myeloma cell line. The HDAC inhibitors were also compared amongst themselves to determine differences in their effects.
A human myeloma cell line MM.1S was grown using either ^12C (light) or ^13C (heavy) lysine containing culture medium. The “heavy” cells were treated with DMSO as the control, and the “light” cells were treated with a single HDAC inhibitor at 37° C. for 6 hours. The heavy and light cells were lysed, and the lysates were mixed in 1:1 ratio and digested with the protease trypsin. The acetylated lysine containing peptides (due to the action of the HDAC inhibitor) in the digested peptide pool were captured by a non-specific anti-acetylated lysine antibody cocktail (the antibodies identify both light and heavy acetylated peptides), and subjected to mass spectrometry analysis in order to identify thousands of individual peptides.
Thousands of peptides were identified in pairs (^12C and ^13C) due to their known mass differences. The amino acid sequence and quantitative ratio (Light/Heavy) of a given peptide in two differentially treated cell lysates were then determined and annotated with their possible protein (gene) sources.
As stated above, three HDAC inhibitors (Compound A, Compound B, and Tubastatin A) were used. Thus, the SILAC method was performed three times, with a different HDAC inhibitor compared to a control each time. Accordingly, there are three pairs of quantitative data in the table below, i.e., Compound A:DMSO, Compound B:DMSO, and Tubastatin A:DMSO. A cut-off of 1.30 fold of change (increase or decrease) was then used to determine “changed” or “+” in the table, and any peptides with a fold of change less than 1.3 fold were determined to be “unchanged” or “0” in the table. Those peptides that were not identified were marked as “NA” in the table. […]

O=C(CCCCCCNC(=O)c1cnc(N(c2ccccc2)c2ccccc2)nc1)NO [Compound A, 2-(diphenylamino)-N-(7-(hydroxyamino)-7-oxoheptyl)pyrimidine-5-carboxamide]
light to heavy ratio (L/H ratio), log 2 scale, acetylated peptide PEPAK(ac)SAPAPKK (SEQ ID NO: 795) (Histone H2B type 2-E [6], gene HIST2H2BE, drug:DMSO): 1.00 | light to heavy ratio (L/H ratio), log 2 scale, acetylated peptide K(ac)AVTK(ac)AQK (SEQ ID NO: 794) (Histone H2B type 2-E [17:21], gene HIST2H2BE, drug:DMSO): 1.00 | light to heavy ratio (L/H ratio) of acetylated peptide AVTK(ac)AQK(ac)K (SEQ ID NO: 560) (Histone H2B type 2-E [21:24], gene HIST2H2BE, inhibitor:DMSO): 0.40 log 2 | light to heavy ratio (L/H ratio) of acetylated peptide K(ac)STGGK(ac)APR (SEQ ID NO: 310) (Histone H3.2 [10:15], HIST2H3D, HIST2H3A, HIST2H3C, drug:DMSO): 1.00 log 2 | light to heavy ratio (L/H ratio), log 2 scale, acetylated peptide K(ac)QLATK(ac)AAR (SEQ ID NO: 796) (Histone H3.2 [19:24], gene HIST2H3D, HIST2H3A, HIST2H3C, drug:DMSO): 1.00 | light to heavy ratio (L/H ratio) of acetylated peptide GK(ac)GGK(ac)GLGK (SEQ ID NO: 311) (Histone H4 [6:9], HIST2H4B, HIST1H4C and other H4 genes, drug:DMSO): 1.00 log 2 | light to heavy ratio (L/H ratio) of acetylated peptide GLGK(ac)GGAK(ac)R (SEQ ID NO: 312) (Histone H4 [13:17], HIST2H4B, HIST1H4C and other H4 genes, drug:DMSO): 1.00 log 2 | light to heavy ratio (L/H ratio) of acetylated peptide GLGK(ac)GGAKR (SEQ ID NO: 313) (Histone H4 [13], HIST2H4B, HIST1H4C and other H4 genes, drug:DMSO): 1.00 log 2 | light to heavy ratio (L/H ratio) of acetylated peptide DGLQNEK(ac)NIVSTPVK (SEQ ID NO: 268) (Hydroxymethylglutaryl-CoA lyase mitochondrial [48], HMGCL, drug:DMSO): 0.45 log 2 | light to heavy ratio (L/H ratio) of acetylated peptide K(ac)[…] (SEQ ID NO: 594) (Hydroxymethylglutaryl-CoA lyase mitochondrial [137], gene HMGCL, inhibitor:DMSO): 0.45 log 2 | L/H ratio of acetylated peptide […](ac)SHR (SEQ ID NO: 56) (IGLV2-14, IGLC2 [208], log 2 scale, drug vs DMSO): 0.00 | light to heavy ratio (L/H ratio) of acetylated peptide, log 2 scale (IGQGYLIK(ac)DGK (SEQ ID NO: 249), 60S ribosomal protein L3 [294], SNORD43, RPL3): −0.44 | L/H ratio of acetylated peptide (IK(ac)[…] (SEQ ID NO: 480), Isoform 2 of Heat shock protein HSP 90-alpha [403], HSP90AA1): 0.39 log 2 | L/H ratio of acetylated peptide (IVQK(ac)[…] (SEQ ID NO: 489), Death-associated protein 1 [29], DAP): 1.00 log 2 | light to heavy ratio (L/H ratio), log 2 scale, acetylated peptide ADLIK(ac)QYGR (SEQ ID NO: 798) (Inactive hydroxysteroid dehydrogenase-like protein 1 [64], gene HSDL1, drug:DMSO): 1.00 | light to heavy ratio (L/H ratio), log 2 scale, acetylated peptide LMK(ac)ICMNEDPAK (SEQ ID NO: 800) (Integrin-linked protein kinase [426], gene ILK, drug:DMSO): 1.00 | light to heavy ratio (L/H ratio) of acetylated peptide HAHGDQYK(ac)ATDFVADR (SEQ ID NO: 574) (Isocitrate dehydrogenase [NADP] mitochondrial [180], gene IDH2, inhibitor:DMSO): 0.42 log 2 | light to heavy ratio (L/H ratio) of acetylated peptide AGTFK(ac)MVFTPK (SEQ ID NO: 606) (Isocitrate dehydrogenase [NADP] mitochondrial [193], gene IDH2, inhibitor:DMSO): 0.46 log 2 | light to heavy ratio (L/H ratio) of acetylated peptide TDFDKNK(ac)IWYEHR (SEQ ID NO: 555) (Isocitrate dehydrogenase [NADP] mitochondrial [282], gene IDH2, inhibitor:DMSO): 0.40 log 2 | light to heavy ratio (L/H ratio) of acetylated peptide AVLIDK(ac)DQSPK (SEQ ID NO: 577) (Isoform 1 of 3-hydroxyisobutyryl-CoA hydrolase mitochondrial [353], gene HIBCH, inhibitor:DMSO): 0.43 log 2 | light to heavy ratio (L/H ratio) of acetylated peptide TSSAFVGK(ac)TPEASPEPK (SEQ ID NO: 598) (Isoform 1 of 26S proteasome non-ATPase regulatory subunit 1 [310], gene PSMD1, inhibitor:DMSO): 0.46 log 2 | light to heavy ratio (L/H ratio) of acetylated peptide […](ac)VVQER (SEQ ID NO: 318) (Isoform 1 of 39S ribosomal protein L47 mitochondrial [144], MRPL47, drug:DMSO): 1.00 log 2 | light to heavy ratio (L/H ratio) of acetylated peptide ATVPK(ac)TEIR (SEQ ID NO: 272) (Isoform 1 of 40S ribosomal protein S24 [37], RPS24, drug:DMSO): 0.47 log 2 | light to heavy ratio (L/H ratio) of acetylated peptide AEEILEK(ac)GLK (SEQ ID NO: 547) (Isoform 1 of 60S ribosomal protein L11 [85], gene RPL11, inhibitor:DMSO): 0.39 log 2 | light to heavy ratio (L/H ratio) of acetylated peptide ISK(ac)EEAMR (SEQ ID NO: 299) (Isoform 1 of 60S ribosomal protein L11 [159], RPL11, drug:DMSO): 0.84 log 2 | light to heavy ratio (L/H ratio) of acetylated peptide AGLVDDFEK(ac)K (SEQ ID NO: 301) (Isoform 1 of ATP synthase subunit d mitochondrial [72], ATP5H, drug:DMSO): 0.86 log 2 | light to heavy ratio (L/H ratio) of acetylated peptide VPVPEDK(ac)[…] (SEQ ID NO: 290) (Isoform 1 of ATP synthase subunit d mitochondrial [85], ATP5H, drug:DMSO): 0.66 log 2 | light to heavy ratio (L/H ratio) of acetylated peptide GK(ac)FGNVYLAR (SEQ ID NO: 537) (Isoform 1 of Aurora kinase C [53], gene AURKC, inhibitor:DMSO): −0.39 log 2 | light to heavy ratio (L/H ratio) of acetylated peptide VWNYK(ac)LR (SEQ ID NO: 593) (Isoform 1 of Coatomer subunit alpha [81], gene COPA, inhibitor:DMSO): 0.45 log 2 | light to heavy ratio (L/H ratio) of acetylated peptide SLLK(ac)PFCAALLK (SEQ ID NO: 329) (Isoform 1 of Cytoskeleton-associated protein 5 [438], CKAP5, drug:DMSO): 0.00 log 2 | light to heavy ratio (L/H ratio) of acetylated peptide VLGTVK(ac)WFNVR (SEQ ID NO: 515) (Isoform 1 of DNA-binding protein A [96], gene CSDA, inhibitor:DMSO): −0.57 log 2 | light to heavy ratio (L/H ratio) of acetylated peptide TLK(ac)ALEYVFK (SEQ ID NO: 516) (Isoform 1 of Dedicator of cytokinesis protein 2 [738], gene DOCK2, inhibitor:DMSO): −0.57 log 2 | light to heavy ratio (L/H ratio), log 2 scale, acetylated peptide VAFK(ac)YCQK (SEQ ID NO: 775) (Isoform 1 of Dolichyl-phosphate beta-glucosyltransferase [122], gene ALG5, drug:DMSO): 1.00 | light to heavy ratio (L/H ratio), log 2 scale, acetylated peptide ILSK(ac)LSEETK (SEQ ID NO: 759) (Isoform 1 of E3 UFM1-protein ligase 1 [614], gene UFL1, drug:DMSO): 0.91 | light to heavy ratio (L/H ratio), log 2 scale, acetylated peptide NEEATK(ac)HLECTK (SEQ ID NO: 785) (Isoform 1 of Fragile X mental retardation syndrome-related protein 1 [207], gene FXR1, drug:DMSO): 1.00 | light to heavy ratio (L/H ratio) of acetylated peptide ELEK(ac)VCNPIITK (SEQ ID NO: 612) (Isoform 1 of Heat shock cognate 71 kDa protein [601], gene HSPA8, inhibitor:DMSO): 0.47 log 2
